The values that follow come from patent US9260408B2, “Dihydroquinoline-2-one derivatives” (Hoffmann-La Roche Inc., priority 2011, dated 2016).

Structures are written as SMILES. Where a name gives a salt, the structure may show the parent alone. Bounds are passed on as bounds.

By EC50 is commonly meant the midpoint of the concentration-response curve. Lower therefore signals an effect from little substance.

Test [1] has as its target T1, human CYP11B1 (Homo sapiens, UniProt P15538).
T1 construct: expressed in transfected cells
T1 sequence (P15538 25-503): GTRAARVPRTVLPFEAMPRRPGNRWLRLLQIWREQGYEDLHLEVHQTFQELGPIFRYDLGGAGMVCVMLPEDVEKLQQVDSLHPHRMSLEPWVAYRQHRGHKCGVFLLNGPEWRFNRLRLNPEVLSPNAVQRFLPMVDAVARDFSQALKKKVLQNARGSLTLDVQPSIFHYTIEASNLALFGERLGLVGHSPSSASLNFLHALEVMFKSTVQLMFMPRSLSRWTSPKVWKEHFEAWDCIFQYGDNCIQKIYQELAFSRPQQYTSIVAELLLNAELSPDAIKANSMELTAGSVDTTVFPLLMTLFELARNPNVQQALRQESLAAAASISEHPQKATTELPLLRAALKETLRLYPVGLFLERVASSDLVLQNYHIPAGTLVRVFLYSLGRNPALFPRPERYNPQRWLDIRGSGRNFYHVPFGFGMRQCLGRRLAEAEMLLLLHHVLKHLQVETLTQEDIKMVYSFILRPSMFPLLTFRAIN
The experiment in a line: G-402 cellular enzyme assay, human CYP11B1 (cortisol release, HTRF). In kind it is cell-based. Particulars: G-402 cells expressing human CYP11B1; 1 μM Deoxycortisol. A digest of the protocol: (§1)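 EC50 comes from least-squares fitting of a 4-parameter MMF curve to steroid product levels, measured by HTRF as aldosterone for CYP11B2 or cortisol for CYP11B1. Stably transfected G-402 host cells were given substrate (1 μM deoxycorticosterone or deoxycortisol, respectively) with inhibitor for 16 h in medium with 2.5% charcoal-treated FCS.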

Test [2] deals with T2, human CYP11B2 (Homo sapiens, UniProt P19099).
T2 construct: expressed in transfected cells
T2 sequence (P19099 25-503): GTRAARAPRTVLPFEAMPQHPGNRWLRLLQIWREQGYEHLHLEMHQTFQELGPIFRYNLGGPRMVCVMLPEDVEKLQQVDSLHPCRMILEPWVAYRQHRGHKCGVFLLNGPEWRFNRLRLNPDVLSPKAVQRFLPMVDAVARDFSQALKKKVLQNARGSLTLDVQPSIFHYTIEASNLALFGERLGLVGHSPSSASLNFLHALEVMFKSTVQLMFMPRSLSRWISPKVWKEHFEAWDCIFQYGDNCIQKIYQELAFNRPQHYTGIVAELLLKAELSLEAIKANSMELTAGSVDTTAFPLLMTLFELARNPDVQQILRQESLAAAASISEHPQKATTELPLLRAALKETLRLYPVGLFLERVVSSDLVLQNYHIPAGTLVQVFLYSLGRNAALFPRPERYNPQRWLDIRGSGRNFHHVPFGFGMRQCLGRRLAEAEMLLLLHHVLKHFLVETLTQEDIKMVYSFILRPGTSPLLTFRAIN
The experiment in a line: G-402 cellular enzyme assay, human CYP11B2 (aldosterone release, HTRF). In kind it is cell-based. Conditions: G-402 cells expressing human CYP11B2; 1 μM Deoxycorticosterone. The essentials:
as §1
On the technique in general: Time-resolved FRET reads energy transfer from a long-lived donor to a nearby acceptor.

Consider `CN1C(=O)CCc2cc(-c3cncc(NCc4ccccc4)n3)ccc21` [Example 25], for which the EC50 amounted to 110 nM in test [1] and 5 nM in test [2].
In the case of `CN1C(=O)CCc2cc(-c3cncc(NCCO)n3)c(F)cc21` [Example 26], the EC50 in test [1] turned out to be 570 nM; in test [2], 18 nM.
`CN1C(=O)CCc2cc(-c3cncc(NCc4ccccc4)n3)c(F)cc21` [Example 27]: the EC50 in test [1] amounted to 270 nM; in test [2], 7 nM.
Take `CN1C(=O)CCc2cc(-c3cncc(N4CC5(CN(C(=O)OC(C)(C)C)C5)C4)n3)ccc21` [Example 28, 6-[6-(1-methyl-2-oxo-1,2,3,4-tetrahydro-quinolin-6-yl)-pyrazin-2-yl]-2,6-diaza-spiro[3.3]heptane-2-carboxylic acid tert-butyl ester]: the EC50 in test [1] worked out at 780 nM; in test [2], 121 nM.
With `CN1C(=O)CCc2cc(-c3cncc(N4CC5(CN(C(=O)OC(C)(C)C)C5)C4)c3)ccc21` [Example 29], the EC50 in test [1] was found to be 5560 nM; in test [2], 260 nM.
Regarding `CC(C)[C@H](CO)Nc1cncc(-c2ccc3c(c2)CCC(=O)N3C)c1` [Example 30, 6-[5-((R)-1-Hydroxymethyl-2-methyl-propylamino)-pyridin-3-yl]-1-methyl-3,4-dihydro-1H-quinolin-2-one], the concentration giving a half-maximal response (EC50) in test [1] is 10200 nM; in test [2], 170 nM.
`CC(C)[C@H](CO)Nc1cncc(-c2ccc3c(c2)CCC(=O)N3C)n1` [Example 31, 6-[6-((R)-1-Hydroxymethyl-2-methyl-propylamino)-pyrazin-2-yl]-1-methyl-3,4-dihydro-1H-quinolin-2-one]: the EC50 is over 3000 nM in test [1] and 172 nM in test [2].
Regarding `CCS(=O)(=O)NCc1cncc(-c2ccc3c(n2)CCC(=O)N3C)c1` [Example 32, Ethanesulfonic acid [5-(5-methyl-6-oxo-5,6,7,8-tetrahydro-[1,5]naphthyridin-2-yl)-pyridin-3-ylmethyl]-amide], the figures for the EC50 in test [1] and in test [2] were over 10000 nM and 1290 nM, respectively.
For `O=C1CCc2nc(-c3cccnc3)ccc2N1` [Example 33, 6-Pyridin-3-yl-3,4-dihydro-1H-[1,5]naphthyridin-2-one] the same measures were over 10000 nM and 1260 nM.
The like results for `CN1C(=O)CCc2nc(-c3cccnc3)ccc21` [Example 34, 1-Methyl-6-pyridin-3-yl-3,4-dihydro-1H-[1,5]naphthyridin-2-one] were, in that order, 29200 nM and 416 nM.
On to `CN1C(=O)CCc2cc(-c3cccnc3)ncc21` [Example 35, 1-Methyl-6-pyridin-3-yl-3,4-dihydro-1H-[1,7]naphthyridin-2-one], for which the results for the EC50 in test [1] and in test [2] were over 10000 nM and 325 nM, respectively.
In the case of `CN1C(=O)CCc2cc(-c3cncc(CN)c3)ccc21` [Example 36, 6-(5-Aminomethyl-pyridin-3-yl)-1-methyl-3,4-dihydro-1H-quinolin-2-one], the values for the EC50 in test [1] and in test [2] were 2570 nM and 71 nM, respectively.
For `CCC(=O)NCc1cncc(-c2ccc3c(c2)CCC(=O)N3C)c1` [Example 37, N-[5-(1-Methyl-2-oxo-1,2,3,4-tetrahydro-quinolin-6-yl)-pyridin-3-ylmethyl]-propionamide], the EC50 in test [1] turned out to be 1590 nM; in test [2], 44 nM.
As to `CC(C)S(=O)(=O)NCc1cncc(-c2ccc3c(c2)CCC(=O)N3C)c1` [Example 38, Propane-2-sulfonic acid [5-(1-methyl-2-oxo-1,2,3,4-tetrahydro-quinolin-6-yl)-pyridin-3-ylmethyl]-amide], the values for the EC50 in test [1] and in test [2] were 1500 nM and 81 nM, respectively.
Take `CN1C(=O)CCc2cc(-c3cncc(OCCNC(=O)OC(C)(C)C)c3)ccc21` [Example 39, {2-[5-(1-Methyl-2-oxo-1,2,3,4-tetrahydro-quinolin-6-yl)-pyridin-3-yloxy]-ethyl}-carbamic acid tert-butyl ester]: the EC50 in test [1] worked out at 120 nM; in test [2], 10 nM.
On to `COc1cc(C(=O)NCc2cncc(-c3ccc4c(c3)CCC(=O)N4C)c2)on1` [Example 40, 3-Methoxy-isoxazole-5-carboxylic acid [5-(1-methyl-2-oxo-1,2,3,4-tetrahydro-quinolin-6-yl)-pyridin-3-ylmethyl]-amide], for which the EC50 in test [1] came to 750 nM; in test [2], 15 nM.
In the case of `CN1C(=O)CCc2cc(-c3cncc(CNC(=O)C4CC4)c3)ccc21` [Example 41, Cyclopropanecarboxylic acid [5-(1-methyl-2-oxo-1,2,3,4-tetrahydro-quinolin-6-yl)-pyridin-3-ylmethyl]-amide], the EC50 in test [1] came to 5560 nM; in test [2] it was 67 nM.
The like results for `CN1C(=O)CCc2cc(-c3cncc(OCCN)c3)ccc21` [Example 42, 6-[5-(2-amino-ethoxy)-pyridin-3-yl]-1-methyl-3,4-dihydro-1H-quinolin-2-one hydrochloride] were, in that order, 160 nM and 28 nM.
Turning to `CCC(=O)NCCOc1cncc(-c2ccc3c(c2)CCC(=O)N3C)c1` [Example 43, N-{2-[5-(1-Methyl-2-oxo-1,2,3,4-tetrahydro-quinolin-6-yl)-pyridin-3-yloxy]-ethyl}-propionamide], the results for the EC50 in test [1] and in test [2] were 1560 nM and 40 nM, respectively.
On to `CN1C(=O)CCc2cc(-c3cncc(CN4CCCCS4(=O)=O)c3)ccc21` [Example 44, 6-[5-(1,1-Dioxo-1λ^6-[1,2]thiazinan-2-ylmethyl)-pyridin-3-yl]-1-methyl-3,4-dihydro-1H-quinolin-2-one], for which the EC50 in test [1] was 568 nM; in test [2] it was 5 nM.
On to `CN1C(=O)CCc2cc(-c3cncc(OC[C@@H]4CCN4C(=O)OC(C)(C)C)c3)ccc21` [Example 45, (S)-2-[5-(1-Methyl-2-oxo-1,2,3,4-tetrahydro-quinolin-6-yl)-pyridin-3-yloxymethyl]-azetidine-1-carboxylic acid tert-butyl ester], for which the EC50 in test [1] worked out at 863 nM; in test [2] it was 87 nM.
For the compound `CN1C(=O)CCc2cc(-c3cncc(O[C@@H]4CCN(C(=O)OC(C)(C)C)C4)c3)c(F)cc21` [Example 46, (R)-3-[5-(7-Fluoro-1-methyl-2-oxo-1,2,3,4-tetrahydro-quinolin-6-yl)-pyridin-3-yloxy]-pyrrolidine-1-carboxylic acid tert-butyl ester], the EC50 in test [1] is 298 nM; in test [2], 5 nM.
`CN1C(=O)CCc2cc(-c3cncc(OC4CN(C(=O)OC(C)(C)C)C4)c3)ccc21` [Example 47, 3-[5-(1-Methyl-2-oxo-1,2,3,4-tetrahydro-quinolin-6-yl)-pyridin-3-yloxy]-azetidine-1-carboxylic acid tert-butyl ester]: the EC50 in test [1] was determined as 61 nM; in test [2] it was 3 nM.
For the compound `CN1C(=O)CCc2cc(-c3cncc(O[C@H]4CCN(C(=O)OC(C)(C)C)C4)c3)ccc21` [Example 48, (S)-3-[5-(1-Methyl-2-oxo-1,2,3,4-tetrahydro-quinolin-6-yl)-pyridin-3-yloxy]-pyrrolidine-1-carboxylic acid tert-butyl ester], the EC50 worked out at 392 nM in test [1] and 49 nM in test [2].
For the compound `CN1C(=O)CCc2cc(-c3cncc(O[C@H]4CCCN(C(=O)OC(C)(C)C)C4)c3)ccc21` [Example 49, (S)-3-[5-(1-Methyl-2-oxo-1,2,3,4-tetrahydro-quinolin-6-yl)-pyridin-3-yloxy]-piperidine-1-carboxylic acid tert-butyl ester], the EC50 in test [1] was found to be 1000 nM; in test [2], 271 nM.
